Assay results as given in ChEMBL document CHEMBL1201862, “PubChem BioAssay data set” (2004).
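Dose response: 5 concentrations. Exposure: 48 h. Format: 96-well plates. Endpoint: linear interpolation; highest concentration if not reached. Abbreviation: GI50, concentration required for 50% inhibition of growth.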 The source made the active and inactive calls. Rule as the data show it: active = GI50 up to about 1.1 µM and inactive = higher.

Legend:
Test in all cases: inhibition of tumour cell growth, NCI panel, 48 h
RXF 631 = tested on: RXF 631
SNB-19 = tested on: SNB-19
K562 = tested on: K562
SK-OV-3 = tested on: SK-OV-3
786-0 = tested on: 786-0
OVCAR-3 = tested on: OVCAR-3
COLO 205 = tested on: COLO 205
Malme-3M = tested on: Malme-3M
SNB-75 = tested on: SNB-75
SK-MEL-28 = tested on: SK-MEL-28
SK-MEL-2 = tested on: SK-MEL-2
SW-620 = tested on: SW-620
SR = tested on: SR
NCI-H226 = tested on: NCI-H226
SF-268 = tested on: SF-268
RXF 393 = tested on: RXF 393
HCC 2998 = tested on: HCC 2998
EKVX = tested on: EKVX
SN12C = tested on: SN12C
A498 = tested on: A498
OVCAR-5 = tested on: OVCAR-5
M14 = tested on: M14
U-251 = tested on: U-251
KM12 = tested on: KM12
CAKI-1 = tested on: CAKI-1
HOP-18 = tested on: HOP-18
HT-29 = tested on: HT-29
XF498 = tested on: XF498
OVCAR-8 = tested on: OVCAR-8
UACC-257 = tested on: UACC-257
MOLT-4 = tested on: MOLT-4
M19-MEL = tested on: M19-MEL
SF-295 = tested on: SF-295
NCI-H460 = tested on: NCI-H460
UACC-62 = tested on: UACC-62
UO-31 = tested on: UO-31
SF-539 = tested on: SF-539
ACHN = tested on: ACHN
LXFL 529 = tested on: LXFL 529
SK-MEL-5 = tested on: SK-MEL-5
A549 = tested on: A549
LOX IMVI = tested on: LOX IMVI
HCT-116 = tested on: HCT-116
DLD-1 = tested on: DLD-1
IGROV-1 = tested on: IGROV-1
HOP-92 = tested on: HOP-92
TK-10 = tested on: TK-10
HCT-15 = tested on: HCT-15
OVCAR-4 = tested on: OVCAR-4
HOP-62 = tested on: HOP-62
NCI-H23 = tested on: NCI-H23
DMS-114 = tested on: DMS-114
KM-20L2 = tested on: KM-20L2
DMS-273 = tested on: DMS-273
SNB-78 = tested on: SNB-78
NCI-H522 = tested on: NCI-H522
CCRF-CEM = tested on: CCRF-CEM
HL-60 = tested on: HL-60
RPMI-8226 = tested on: RPMI-8226

SMILES: CC(C)(Oc1ccc(/C=C/C(=O)c2ccc(Cl)cc2)cc1)C(=O)Nc1c(Cl)cccc1Cl
- GI50 (RXF 631): 19.5 µM (inactive)
- GI50 (SNB-19): 33.8 µM (inactive)
- GI50 (K562): > 100 µM (inactive)
- GI50 (SK-OV-3): 34 µM (inactive)
- GI50 (786-0): 19.6 µM (inactive)
- GI50 (OVCAR-3): 19.5 µM (inactive)
- GI50 (COLO 205): 17.8 µM (inactive)
- GI50 (Malme-3M): 19.7 µM (inactive)
- GI50 (SNB-75): 29.4 µM (inactive)
- GI50 (SK-MEL-28): 16.1 µM (inactive)
- GI50 (SK-MEL-2): 42.3 µM (inactive)
- GI50 (SW-620): 12.8 µM (inactive)
- GI50 (SR): > 100 µM (inactive)
- GI50 (NCI-H226): 25.5 µM (inactive)
- GI50 (SF-268): 28.5 µM (inactive)
- GI50 (RXF 393): 20.6 µM (inactive)
- GI50 (HCC 2998): 25.4 µM (inactive)
- GI50 (EKVX): 57.8 µM (inactive)
- GI50 (SN12C): 15 µM (inactive)
- GI50 (A498): 17.1 µM (inactive)
- GI50 (OVCAR-5): 41.1 µM (inactive)
- GI50 (M14): 17.5 µM (inactive)
- GI50 (U-251): 12.5 µM (inactive)
- GI50 (KM12): 11.8 µM (inactive)
- GI50 (CAKI-1): 23.7 µM (inactive)
- GI50 (HOP-18): 80.4 µM (inactive)
- GI50 (HT-29): 13.3 µM (inactive)
- GI50 (XF498): 17.7 µM (inactive)
- GI50 (OVCAR-8): 14.1 µM (inactive)
- GI50 (UACC-257): 30.9 µM (inactive)
- GI50 (MOLT-4): 6.32 µM (inactive)
- GI50 (M19-MEL): 14.1 µM (inactive)
- GI50 (SF-295): 25.8 µM (inactive)
- GI50 (NCI-H460): 31.6 µM (inactive)
- GI50 (UACC-62): 17.3 µM (inactive)
- GI50 (UO-31): 24.4 µM (inactive)
- GI50 (SF-539): 14.6 µM (inactive)
- GI50 (ACHN): 20.9 µM (inactive)
- GI50 (LXFL 529): 13.9 µM (inactive)
- GI50 (SK-MEL-5): 18.2 µM (inactive)
- GI50 (A549): 31.4 µM (inactive)
- GI50 (LOX IMVI): 16 µM (inactive)
- GI50 (HCT-116): 6.03 µM (inactive)
- GI50 (DLD-1): 13.7 µM (inactive)
- GI50 (IGROV-1): 26.9 µM (inactive)
- GI50 (HOP-92): 15.7 µM (inactive)
- GI50 (TK-10): 59.4 µM (inactive)
- GI50 (HCT-15): 15.1 µM
- GI50 (OVCAR-4): 23.4 µM (inactive)
- GI50 (HOP-62): 72.3 µM (inactive)
- GI50 (NCI-H23): 17.3 µM (inactive)
- GI50 (DMS-114): 11.6 µM (inactive)
- GI50 (KM-20L2): 20.3 µM (inactive)

SMILES: COc1ccc2c3c(coc13)C(CCC(=O)O)CC2 (stereo not given)
- GI50 (RXF 631): > 100 µM (inactive)
- GI50 (SNB-19): > 100 µM (inactive)
- GI50 (SK-OV-3): > 100 µM (inactive)
- GI50 (786-0): > 100 µM (inactive)
- GI50 (OVCAR-3): > 100 µM (inactive)
- GI50 (COLO 205): > 100 µM (inactive)
- GI50 (SNB-75): 56.6 µM (inactive)
- GI50 (SK-MEL-28): > 100 µM (inactive)
- GI50 (SW-620): > 100 µM (inactive)
- GI50 (RXF 393): > 100 µM (inactive)
- GI50 (HCC 2998): > 100 µM (inactive)
- GI50 (EKVX): > 100 µM (inactive)
- GI50 (SN12C): > 100 µM (inactive)
- GI50 (A498): > 100 µM (inactive)
- GI50 (M14): > 100 µM (inactive)
- GI50 (U-251): > 100 µM (inactive)
- GI50 (CAKI-1): 38.7 µM (inactive)
- GI50 (HOP-18): 88.5 µM (inactive)
- GI50 (HT-29): > 100 µM (inactive)
- GI50 (XF498): 48.3 µM (inactive)
- GI50 (OVCAR-8): > 100 µM (inactive)
- GI50 (UACC-257): > 100 µM (inactive)
- GI50 (M19-MEL): > 100 µM (inactive)
- GI50 (SF-295): > 100 µM (inactive)
- GI50 (NCI-H460): > 100 µM (inactive)
- GI50 (UACC-62): > 100 µM (inactive)
- GI50 (SF-539): > 100 µM (inactive)
- GI50 (ACHN): > 100 µM (inactive)
- GI50 (LXFL 529): > 100 µM (inactive)
- GI50 (DMS-273): > 100 µM (inactive)
- GI50 (SK-MEL-5): > 100 µM (inactive)
- GI50 (A549): > 100 µM (inactive)
- GI50 (LOX IMVI): > 100 µM (inactive)
- GI50 (HCT-116): > 100 µM (inactive)
- GI50 (DLD-1): > 100 µM (inactive)
- GI50 (IGROV-1): > 100 µM (inactive)
- GI50 (TK-10): > 100 µM (inactive)
- GI50 (HCT-15): > 100 µM
- GI50 (OVCAR-4): > 100 µM (inactive)
- GI50 (HOP-62): > 100 µM (inactive)
- GI50 (SNB-78): > 100 µM (inactive)
- GI50 (NCI-H23): > 100 µM (inactive)
- GI50 (DMS-114): > 100 µM (inactive)
- GI50 (KM-20L2): > 100 µM (inactive)

SMILES: CCc1cccc(C(C)C)c1NC(=O)C(=O)C(CC(=O)Nc1ccc(Cl)c(Cl)c1)C(=O)OC (stereo not given)
- GI50 (RXF 631): > 100 µM (inactive)
- GI50 (SNB-19): > 100 µM (inactive)
- GI50 (K562): 10.9 µM (inactive)
- GI50 (SK-OV-3): > 100 µM (inactive)
- GI50 (786-0): > 100 µM (inactive)
- GI50 (OVCAR-3): > 100 µM (inactive)
- GI50 (COLO 205): 77.3 µM (inactive)
- GI50 (NCI-H522): 78.9 µM (inactive)
- GI50 (Malme-3M): > 100 µM (inactive)
- GI50 (SNB-75): > 100 µM (inactive)
- GI50 (CCRF-CEM): > 100 µM (inactive)
- GI50 (SK-MEL-28): > 100 µM (inactive)
- GI50 (SK-MEL-2): > 100 µM (inactive)
- GI50 (HL-60): > 100 µM (inactive)
- GI50 (SW-620): 10 µM (inactive)
- GI50 (SR): > 100 µM (inactive)
- GI50 (NCI-H226): > 100 µM (inactive)
- GI50 (SF-268): > 100 µM (inactive)
- GI50 (RXF 393): > 100 µM (inactive)
- GI50 (HCC 2998): > 100 µM (inactive)
- GI50 (EKVX): > 100 µM (inactive)
- GI50 (SN12C): > 100 µM (inactive)
- GI50 (A498): > 100 µM (inactive)
- GI50 (OVCAR-5): > 100 µM (inactive)
- GI50 (M14): 54.3 µM (inactive)
- GI50 (U-251): > 100 µM (inactive)
- GI50 (KM12): 43.7 µM (inactive)
- GI50 (CAKI-1): > 100 µM (inactive)
- GI50 (HOP-18): 99.5 µM (inactive)
- GI50 (HT-29): > 100 µM (inactive)
- GI50 (XF498): > 100 µM (inactive)
- GI50 (OVCAR-8): > 100 µM (inactive)
- GI50 (UACC-257): > 100 µM (inactive)
- GI50 (MOLT-4): > 100 µM (inactive)
- GI50 (M19-MEL): 52.5 µM (inactive)
- GI50 (RPMI-8226): 44 µM (inactive)
- GI50 (SF-295): > 100 µM (inactive)
- GI50 (NCI-H460): 85.7 µM (inactive)
- GI50 (UACC-62): 2.18 µM (inactive)
- GI50 (UO-31): 37.8 µM (inactive)
- GI50 (SF-539): > 100 µM (inactive)
- GI50 (ACHN): 78 µM (inactive)
- GI50 (DMS-273): 49.4 µM (inactive)
- GI50 (SK-MEL-5): 55.8 µM (inactive)
- GI50 (A549): > 100 µM (inactive)
- GI50 (LOX IMVI): > 100 µM (inactive)
- GI50 (HCT-116): 34.3 µM (inactive)
- GI50 (DLD-1): 31 µM (inactive)
- GI50 (IGROV-1): > 100 µM (inactive)
- GI50 (HOP-92): 51.3 µM (inactive)
- GI50 (TK-10): > 100 µM (inactive)
- GI50 (HCT-15): 14.8 µM
- GI50 (OVCAR-4): > 100 µM (inactive)
- GI50 (HOP-62): 35.2 µM (inactive)
- GI50 (SNB-78): > 100 µM (inactive)
- GI50 (NCI-H23): > 100 µM (inactive)
- GI50 (DMS-114): > 100 µM (inactive)
- GI50 (KM-20L2): 26.2 µM (inactive)
